In paper PMC12102759 (Protein Science : A Publication of the Protein Society, 2025):

System: G3BP1 NFT2
Format: binding, human
Details: library DMS-CoV, bait G3BP1 NFT2, prey N, listed as aa = residue placed at this position, column sums to 1

Sequence: APRITFGGPSDSTGSN G8V (APRITFGVPSDSTGSN)
- DMS PSSM value, G (position 8) (peptide APRITFGGPSDSTGSN): 0.0004532

Sequence: RNAPRITFGGPSDSTG A3P (RNPPRITFGGPSDSTG)
- DMS PSSM value, A (position 3) (peptide RNAPRITFGGPSDSTG): 0

Sequence: RNAPRITFGGPSDSTG G10M (RNAPRITFGMPSDSTG)
- DMS PSSM value, G (position 10) (peptide RNAPRITFGGPSDSTG): 0

Sequence: APRITFGGPSDSTGSN G7F (APRITFFGPSDSTGSN)
- DMS PSSM value, G (position 7) (peptide APRITFGGPSDSTGSN): 0

Sequence: RNAPRITFGGPSDSTG P11M (RNAPRITFGGMSDSTG)
- DMS PSSM value, P (position 11) (peptide RNAPRITFGGPSDSTG): 0

Sequence: RNAPRITFGGPSDSTG G10L (RNAPRITFGLPSDSTG)
- DMS PSSM value, G (position 10) (peptide RNAPRITFGGPSDSTG): 0

Sequence: APRITFGGPSDSTGSN F6A (APRITAGGPSDSTGSN)
- DMS PSSM value, F (position 6) (peptide APRITFGGPSDSTGSN): 0

Sequence: APRITFGGPSDSTGSN S12M (APRITFGGPSDMTGSN)
- DMS PSSM value, S (position 12) (peptide APRITFGGPSDSTGSN): 0.01193

Sequence: RNAPRITFGGPSDSTG G10Q (RNAPRITFGQPSDSTG)
- DMS PSSM value, G (position 10) (peptide RNAPRITFGGPSDSTG): 0

Sequence: APRITFGGPSDSTGSN G14V (APRITFGGPSDSTVSN)
- DMS PSSM value, G (position 14) (peptide APRITFGGPSDSTGSN): 0.009945

Sequence: RNAPRITFGGPSDSTG T15K (RNAPRITFGGPSDSKG)
- DMS PSSM value, T (position 15) (peptide RNAPRITFGGPSDSTG): 0

Sequence: RNAPRITFGGPSDSTG R5P (RNAPPITFGGPSDSTG)
- DMS PSSM value, R (position 5) (peptide RNAPRITFGGPSDSTG): 0.5972

Sequence: RNAPRITFGGPSDSTG T15L (RNAPRITFGGPSDSLG)
- DMS PSSM value, T (position 15) (peptide RNAPRITFGGPSDSTG): 0

Sequence: RNAPRITFGGPSDSTG G9Y (RNAPRITFYGPSDSTG)
- DMS PSSM value, G (position 9) (peptide RNAPRITFGGPSDSTG): 0

Sequence: APRITFGGPSDSTGSN T13M (APRITFGGPSDSMGSN)
- DMS PSSM value, T (position 13) (peptide APRITFGGPSDSTGSN): 0.06406

Sequence: APRITFGGPSDSTGSN G7N (APRITFNGPSDSTGSN)
- DMS PSSM value, G (position 7) (peptide APRITFGGPSDSTGSN): 0

Sequence: APRITFGGPSDSTGSN S12W (APRITFGGPSDWTGSN)
- DMS PSSM value, S (position 12) (peptide APRITFGGPSDSTGSN): 0.01354

Sequence: APRITFGGPSDSTGSN S15K (APRITFGGPSDSTGKN)
- DMS PSSM value, S (position 15) (peptide APRITFGGPSDSTGSN): 0.0001786

Sequence: APRITFGGPSDSTGSN I4S (APRSTFGGPSDSTGSN)
- DMS PSSM value, I (position 4) (peptide APRITFGGPSDSTGSN): 0

Sequence: APRITFGGPSDSTGSN F6S (APRITSGGPSDSTGSN)
- DMS PSSM value, F (position 6) (peptide APRITFGGPSDSTGSN): 0

Sequence: APRITFGGPSDSTGSN G7S (APRITFSGPSDSTGSN)
- DMS PSSM value, G (position 7) (peptide APRITFGGPSDSTGSN): 0

Sequence: RNAPRITFGGPSDSTG G16F (RNAPRITFGGPSDSTF)
- DMS PSSM value, G (position 16) (peptide RNAPRITFGGPSDSTG): 0

Sequence: RNAPRITFGGPSDSTG T15W (RNAPRITFGGPSDSWG)
- DMS PSSM value, T (position 15) (peptide RNAPRITFGGPSDSTG): 0

Sequence: APRITFGGPSDSTGSN F6R (APRITRGGPSDSTGSN)
- DMS PSSM value, F (position 6) (peptide APRITFGGPSDSTGSN): 0

Sequence: APRITFGGPSDSTGSN S12N (APRITFGGPSDNTGSN)
- DMS PSSM value, S (position 12) (peptide APRITFGGPSDSTGSN): 0.001178

Sequence: RNAPRITFGGPSDSTG S14N (RNAPRITFGGPSDNTG)
- DMS PSSM value, S (position 14) (peptide RNAPRITFGGPSDSTG): 0.6905

Sequence: APRITFGGPSDSTGSN D11Y (APRITFGGPSYSTGSN)
- DMS PSSM value, D (position 11) (peptide APRITFGGPSDSTGSN): 0.02603

Sequence: APRITFGGPSDSTGSN S15R (APRITFGGPSDSTGRN)
- DMS PSSM value, S (position 15) (peptide APRITFGGPSDSTGSN): 0

Sequence: APRITFGGPSDSTGSN G7T (APRITFTGPSDSTGSN)
- DMS PSSM value, G (position 7) (peptide APRITFGGPSDSTGSN): 0

Sequence: APRITFGGPSDSTGSN G8W (APRITFGWPSDSTGSN)
- DMS PSSM value, G (position 8) (peptide APRITFGGPSDSTGSN): 0

Sequence: RNAPRITFGGPSDSTG F8I (RNAPRITIGGPSDSTG)
- DMS PSSM value, F (position 8) (peptide RNAPRITFGGPSDSTG): 0

Sequence: APRITFGGPSDSTGSN G14T (APRITFGGPSDSTTSN)
- DMS PSSM value, G (position 14) (peptide APRITFGGPSDSTGSN): 0.007708

Sequence: RNAPRITFGGPSDSTG T15V (RNAPRITFGGPSDSVG)
- DMS PSSM value, T (position 15) (peptide RNAPRITFGGPSDSTG): 0

Sequence: RNAPRITFGGPSDSTG P4N (RNANRITFGGPSDSTG)
- DMS PSSM value, P (position 4) (peptide RNAPRITFGGPSDSTG): 0

Sequence: APRITFGGPSDSTGSN S15Q (APRITFGGPSDSTGQN)
- DMS PSSM value, S (position 15) (peptide APRITFGGPSDSTGSN): 0.01454

Sequence: RNAPRITFGGPSDSTG I6R (RNAPRRTFGGPSDSTG)
- DMS PSSM value, I (position 6) (peptide RNAPRITFGGPSDSTG): 0

Sequence: APRITFGGPSDSTGSN G8P (APRITFGPPSDSTGSN)
- DMS PSSM value, G (position 8) (peptide APRITFGGPSDSTGSN): 0.001619

Sequence: RNAPRITFGGPSDSTG T7F (RNAPRIFFGGPSDSTG)
- DMS PSSM value, T (position 7) (peptide RNAPRITFGGPSDSTG): 0

Sequence: APRITFGGPSDSTGSN T13E (APRITFGGPSDSEGSN)
- DMS PSSM value, T (position 13) (peptide APRITFGGPSDSTGSN): 0.0383

Sequence: RNAPRITFGGPSDSTG F8M (RNAPRITMGGPSDSTG)
- DMS PSSM value, F (position 8) (peptide RNAPRITFGGPSDSTG): 0

Sequence: RNAPRITFGGPSDSTG P4I (RNAIRITFGGPSDSTG)
- DMS PSSM value, P (position 4) (peptide RNAPRITFGGPSDSTG): 0

Sequence: APRITFGGPSDSTGSN D11S (APRITFGGPSSSTGSN)
- DMS PSSM value, D (position 11) (peptide APRITFGGPSDSTGSN): 0.01892
